Where two headings read alike, the source gives them in different places.
Columns and labels:
Plasmodium falciparum = test: Antimalarial activity: in vitro Plasmodium falciparum culture, [3H]-hypoxanthine incorporation; assay type: cell-based; conditions: Example 11, asynchronous blood culture, 48 h + 24 h with [3H]-hypoxanthine, dilution series 100 to 0.14 μmol l−1, IC50 determined by extrapolating, read-out: IC 50 values, Plasmodium falciparum
Description: The antimalarial activity of compounds 1 to 5 was determined using in vitro cultures of the causative organism of malaria, Plasmodium falciparum. 200 μl of an asynchronous Plasmodium falciparum culture with a 0.4% blood parasite content and a haematocrit of 2% were loaded into each of the wells of a 96 well microtitre plate. A serial dilution series of the compounds was then prepared in steps of three between concentrations of 100 and 0.14 μmol 1^−1. The plates are incubated at 37° C., 3% CO2 and 5% O2 over a period of 48 hours. 30 μl of medium supplemented with 27 ηCi ml^−1 of [^3H]-hypoxanthine were then added to each well. After 24 hours' incubation, the parasites were harvested by filtration through glass fibre filters and the incorporated radioactivity was measured. Inhibition of parasite growth was measured as the percentage inhibition of tritium incorporation relative to a comparison without the substance. The median inhibitory concentration (IC50) of the substance was determined by extrapolating the values.

E. coli K12 = test: Antibacterial action: growth inhibition of E. coli K12 in LB medium (turbidity); assay type: cell-based; conditions: Escherichia coli, Example 10, overnight at 37° C., dilution series 500, 100, 50, 10 and 0 μmol l−1, growth assessed by turbidity, read-out: IC 50 values, E. coli
Description: Antibacterial action of the above-stated compounds 1 to 5
A dilution series comprising the concentrations 500, 100, 50, 10 and 0 μmol 1^−1 of the individual compounds 1 to 5 in LB medium is introduced into 5 culture microtubes in a volume of 0.5 ml. Each of the microtubes was inoculated with 10 μl of an overnight culture of E. coli K12 and shaken overnight at 37° C. Bacterial growth was assessed on the basis of the turbidity of the medium.

IC50 (Plasmodium falciparum) | IC50 (E. coli K12) | IC50 (Plasmodium falciparum; Plasmodium falciparum) | Molecule
215 nM | – | – | CC(=O)N(O)C(CCc1ccccc1)CCP(=O)(O)O (stereo not shown) [Compound 1, 3-N-Acetyl-3-N-(hydroxylamino)-5-phenylpentylphosphonic acid]
157 nM | – | – | CC(=O)N(O)C(CCC1CCCCC1)CCP(=O)(O)O (stereo not shown) [Compound 2, 3-N-Acetyl-3-N-(hydroxylamino)-5-cyclohexyl-pentylphosphonic acid]
– | 762000 nM | 405 nM | CC(=O)C(C)(NO)C(CCc1ccccc1)CP(=O)(O)O (stereo not shown) [Compound 3, 3-acetyl-3-(N-hydroxylamino)-3-methyl-2-(2-phenylethyl)propylphosphonic acid]
– | 736000 nM | 375 nM | CC(=O)C(C)(NO)C(CCc1ccccn1)CP(=O)(O)O (stereo not shown) [Compound 4, 3-acetyl-3-(N-hydroxylamino)-3-methyl-2-[2-(2-pyridyl)ethyl]propylphosphonic acid]

Molecule | IC50 (Plasmodium falciparum) | IC50 (E. coli K12) | IC50 (Plasmodium falciparum; Plasmodium falciparum)
3-acetyl-3-(N-hydroxylamino)-3-methyl-[2-(3-pyridyl)ethyl]propylphosphonic acid [Compound 5] | 183 nM | – | –
